Data set [1] has as its system rat. The settings on record: Subchronic oral toxicity in rodents, sprague dawley, Feed, dose end: 13 week, group: systemic.
The test system of another data set is dog. The settings on record: Sub-acute repeat dose toxicity, beagle, Oral, Feed, group: systemic.
A further data set concerns mouse. The conditions noted are these: Subchronic oral toxicity in rodents, b6c3f1, Feed, dose end: 90 day, group: systemic.
Data set [2] has as its system rat. The conditions noted are these: Multigenerational reproductive toxicity study, sprague dawley, Inhalation, Whole-Body, dose end: 2 generation.
Data set [3] deals with rat. The conditions noted are these: Prenatal developmental toxicity study, sprague dawley, Inhalation, Whole-Body, dose end: 19 GD, group: maternal.
[4] abbreviates: systemic / in life observation / body weight / body weight + systemic / in life observation / food consumption / food consumption + systemic….
Setting [5] is: systemic / clinical chemistry / alanine aminotransferase (alt/sgpt) / alanine aminotransferase (alt/sgpt) + systemic / clinical chemistry / ….
The mark [6] stands for this setting: group: offspring, systemic / organ weight / kidney / nos + systemic / in life observation / body weight / offspring (pup) weight + developmental / ….
The mark [7] stands for this setting: group: parental, systemic / pathology gross / lung / discolored.
The mark [8] stands for this setting: group: reproductive, reproductive / offspring survival early / birth index / live birth index + reproductive / reproductive performance / estrous cycle / corpora….
Setting [9] is: systemic / in life observation / body weight / body weight gain + systemic / in life observation / body weight / body weight + systemic / in….

The text below walks through data of EPA's ToxRefDB 2.

Consider `CC(C)[C@H](C(=O)O[C@H](C#N)c1cccc(Oc2ccccc2)c1)c1ccc(Cl)cc1` [Esfenvalerate], for which the lowest observed adverse effect level (LOAEL) in the data set on rat [1] (systemic / in life observation / clinical signs / jerking movements) turned out to be 7.5 mg/kg/day; in the data set with dog (systemic / in life observation / body weight / body weight + systemic / in life observation / clinical signs / ataxia), 7.5 mg/kg/day; with mouse (setting [5]), 106 mg/kg/day. In addition, the NOAEL was found to be 2.5 mg/kg/day in the data set on rat [1] (systemic / in life observation / clinical signs / jerking movements + systemic / in life observation / body weight / body weight gain + …), 2.5 mg/kg/day in the data set with dog (setting [4]) and 30.5 mg/kg/day with mouse (setting [5]). In addition, the LEL in the data set with rat [1] (systemic / in life observation / clinical signs / jerking movements + systemic / organ weight / kidney / relative to body weight) amounted to 7.5 mg/kg/day; with dog (systemic / in life observation / body weight / body weight + systemic / in life observation / clinical signs / ataxia + systemic / in life …), 7.5 mg/kg/day; with mouse (systemic / clinical chemistry / glucose / glucose + systemic / clinical chemistry / triglycerides / triglycerides), 30.5 mg/kg/day. Moreover, the values for the NEL in the data set with rat [1] (systemic / organ weight / kidney / relative to body weight + systemic / hematology / erythrocyte (rbc) count differential / erythrocyte (rbc…), in the data set with dog (setting [4]) and with mouse (setting [5]) were 2.5 mg/kg/day, 2.5 mg/kg/day and 10.5 mg/kg/day, respectively.
Take `CI` [Methyl iodide]: the LEL in the data set on rat [2] (setting [6]) is 5 ppm; in the data set with rat [2] (setting [7]), 5 ppm; in the data set on rat [2] (setting [8]), 50 ppm; with rat [3] (setting [9]) it was 60 ppm. Moreover, the LOAEL is 5 ppm in the data set on rat [2] (setting [6]), 5 ppm in the data set on rat [2] (setting [7]), 50 ppm in the data set with rat [2] (setting [8]) and 60 ppm with rat [3] (systemic / in life observation / body weight / body weight gain). The NEL is below 5 ppm in the data set on rat [2] (setting [6]), below 5 ppm in the data set with rat [2] (setting [7]), 20 ppm in the data set on rat [2] (setting [8]) and 20 ppm with rat [3] (setting [9]). In addition, the no observed adverse effect level (NOAEL) with rat [2] (setting [6]) is below 5 ppm; with rat [2] (setting [7]), below 5 ppm; with rat [2] (setting [8]) it was 20 ppm; in the data set with rat [3] (setting [9]), 20 ppm.

The LOAEL is the lowest tested level that showed an adverse finding. By NOAEL is commonly meant the highest tested level that showed no adverse finding.
